Converted amounts (≈) assume the structure as drawn. Marks after values point to notes of the source that are not given here. Peptide text beside a SMILES is read from it.
Experiments:
GC receptor = target: T1, GC receptor (Homo sapiens, UniProt P47871); assay: GC receptor mediated cAMP production in vitro (HEK293 cells transfected with GC receptor); type: cell-based; conditions: 20 min at 37° C., read-out: GCGR (nM EC50)
T1 construct: expressed in transfected cells; host or cells: HEK293 cells
Excerpt: (§1) The medium was removed, the cells were lysed, and cAMP values were detected referring to the detection method described for the assay kit.

[1] = Accelerated chemical stability in injection solvent system (HPLC-UV); type: physicochemical; conditions: 14 days, phosphate buffer pH 7.3 with Tween 80 and phenol, main peak area vs day 0
Outline: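 Compound dissolved in 10 mM pH 8.5 sodium hydrogen phosphate buffer, adjusted to pH 7.3, with Tween 80 and phenol added. Solutions stored 14 days at 10 °C and 37 °C; HPLC-UV main-peak area by normalisation compared against day 0.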

[2] = Effect on body weight of DIO mice after 14 days' administration; type: in vivo, C57BL/6J mice; conditions: DIO mice, subcutaneous injection every day for 14 days; (initial−last)/initial; positive values indicate a decrease
Outline: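 C57BL/6J mice on H10060 high-fat diet for 34 weeks (DIO; 45.0–52.0 g), 5 per group, dosed subcutaneously once daily for 14 days; controls received saline. Body weight change (%) = (initial − last-day weight)/initial weight; positive values mean loss.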

[3] = Short-term administration: food intake and body weight in DIO mice; type: in vivo; conditions: 30 nmol/kg once every 24 h, twice, − decrease
Outline: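 DIO mice (mean body weight 52.5 g), 5 per group, dosed at 30 nmol/kg every 24 h for two doses, in 10 mM PBS pH 7.4; controls received solvent. Food intake and body weight at 48 h expressed as change rate versus the day before dosing.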

[4] = Glucose tolerance test in glucose-loaded DIO mice; type: in vivo
Outline: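 DIO mice fasted 16 h received compound subcutaneously; 1 h later, glucose 1 g/kg was given intraperitoneally. Blood glucose measured at 0.5, 1 and 1.5 h; AUC compared with model control group to give blood glucose inhibition rate (%).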

physchem = type: physicochemical
Procedure: 2 mg of the compound was weighed, dissolved in 1 ml of phosphate buffer solutions with different concentrations (10, 20 mM) and different pH values (7.5, 8.0), and centrifuged, and supernatant was taken. The peak area was measured by HPLC (chromatographic column: Aeris widepore XB-C18 3.6 mm, 4.6×150 mm; mobile phase: A: 0.05% TFA, B: 95% acetonitrile; detection wavelength: 214 nm) and compared with a corresponding sample standard solution, and the relative concentration of the test sample solution is calculated.

human GLP-1 receptor = target: T2, human GLP-1 receptor (Homo sapiens, UniProt P43220); assay: GLP-1 receptor mediated cAMP production in vitro; type: cell-based; conditions: cells transfected with human GLP-1 receptor, 20 min at 37° C., read-out: GLP-1R (nM EC50)
T2 construct: expressed in transfected cells; host or cells: Chinese guinea pig lung cells [sic]
Excerpt: as §1
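Throughout, for solubility: compound added at 2 mg per mL of phosphate buffer, with the dissolved amount determined in the supernatant.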

T2 sequence (P43220 24-463): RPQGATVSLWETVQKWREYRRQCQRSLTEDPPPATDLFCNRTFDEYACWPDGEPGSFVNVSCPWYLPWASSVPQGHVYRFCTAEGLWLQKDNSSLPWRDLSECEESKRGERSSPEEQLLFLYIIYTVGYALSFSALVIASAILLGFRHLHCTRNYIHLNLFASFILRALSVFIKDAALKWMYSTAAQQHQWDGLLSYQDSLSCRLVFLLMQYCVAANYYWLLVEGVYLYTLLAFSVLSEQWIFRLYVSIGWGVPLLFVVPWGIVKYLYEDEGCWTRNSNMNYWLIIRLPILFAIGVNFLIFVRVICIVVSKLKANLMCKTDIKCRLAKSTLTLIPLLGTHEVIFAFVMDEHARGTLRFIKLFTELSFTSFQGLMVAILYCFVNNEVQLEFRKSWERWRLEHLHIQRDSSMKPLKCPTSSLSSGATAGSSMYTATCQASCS
T1 sequence (P47871 26-477): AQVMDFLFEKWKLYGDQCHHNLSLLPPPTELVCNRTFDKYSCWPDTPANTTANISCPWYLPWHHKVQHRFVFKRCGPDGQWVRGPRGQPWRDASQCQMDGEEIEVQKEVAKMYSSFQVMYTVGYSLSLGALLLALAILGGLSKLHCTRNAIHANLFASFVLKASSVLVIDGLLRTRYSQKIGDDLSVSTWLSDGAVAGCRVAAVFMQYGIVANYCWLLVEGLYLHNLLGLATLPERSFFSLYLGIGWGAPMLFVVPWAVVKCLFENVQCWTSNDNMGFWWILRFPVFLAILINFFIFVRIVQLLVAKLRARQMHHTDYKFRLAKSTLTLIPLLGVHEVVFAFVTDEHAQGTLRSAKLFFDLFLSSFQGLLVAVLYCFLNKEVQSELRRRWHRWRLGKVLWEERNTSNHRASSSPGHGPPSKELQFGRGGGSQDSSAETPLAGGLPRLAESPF

EC50 (GC receptor): 0.024 nM
Change in purity % (10° C.) ([1]; 10° C.): −0.9%
Change in purity % (37° C.) ([1]; 37° C.): −3.7%
solubility (physchem; pH 7.5, Solubility, pH 7.5, 10 mM phosphate buffer): 1820 µg/mL (≈ 437 µM)
solubility (physchem; pH 7.5, Solubility, pH 7.5, 20 mM phosphate buffer): 1220 µg/mL (≈ 293 µM)
solubility (physchem; pH 8, Solubility, pH 8.0, 10 mM phosphate buffer): > 2000 µg/mL
solubility (physchem; pH 8, Solubility, pH 8.0, 20 mM phosphate buffer): > 2000 µg/mL
EC50 (human GLP-1 receptor): 0.051 nM
SMILES: CCCCCCCCCCCCCCCC(=O)N[C@@H](CCC(=O)N[C@@H](CCC(=O)NCCCC[C@H](NC(=O)[C@H](CC(=O)O)NC(=O)[C@H](CO)NC(=O)[C@@H](NC(=O)[C@H](Cc1ccccc1)NC(=O)[C@@H](NC(=O)CNC(=O)[C@H](CCC(N)=O)NC(=O)C(C)(C)NC(=O)[C@@H](N)Cc1c[nH]cn1)[C@@H](C)O)[C@@H](C)O)C(=O)N[C@@H](CO)C(=O)N[C@@H](CCCCN)C(=O)N[C@@H](Cc1ccc(O)cc1)C(=O)N[C@@H](CC(C)C)C(=O)N[C@@H](CCC(=O)O)C(=O)N[C@@H](CCC(=O)O)C(=O)N[C@@H](CCCNC(=N)N)C(=O)N[C@@H](C)C(=O)N[C@@H](C)C(=O)N[C@@H](CCCCN)C(=O)N[C@@H](CCC(=O)O)C(=O)N[C@@H](Cc1ccccc1)C(=O)N[C@H](C(=O)N[C@@H](C)C(=O)N[C@@H](Cc1c[nH]c2ccccc12)C(=O)N[C@@H](CC(C)C)C(=O)N[C@@H](CCC(=O)O)C(=O)N[C@@H](C)C(=O)NCC(=O)NCC(=O)N1CCC[C@H]1C(=O)N[C@@H](CO)C(=O)N[C@@H](CO)C(=O)NCC(N)=O)C(C)C)C(=O)O)C(=O)O [Compound 4] (HELM PEPTIDE1{H.[Aib].Q.G.T.F.T.S.D.K.S.K.Y.L.E.E.R.A.A.K.E.F.V.A.W.L.E.A.G.G.P.S.S.G.[am]}|PEPTIDE2{[CCCCCCCCCCCCCCCC(=O)[*:2]].[gGlu].[gGlu]}$PEPTIDE1,PEPTIDE2,10:R3-3:R2$$$V2.0; N-terminus assumed)
body weight change rate, Table 3 [2]: 26.0%
Rate of change in food intake (%) ([3]; at 48 hours vs day before administration): −42%
Body weight change ([3]; at 48 hours): -1.5 g
AUC of blood glucose, Table 4 ([4]; DIO mice fasted 16 h, glucose 1 g/kg i.p. 1 h after s.c. administration, 0.5, 1, 1.5 h): 9.02 ± 1.74 mmol·h/L
AUC reduction rate (%), Table 4 ([4]; blood glucose inhibition rate compared with model control group, DIO mice, glucose 1 g/kg i.p.): 57.4** %
